The values that follow come from article doi:10.1101/2024.06.25.600598v1 (biorxiv, 2024).

Where a name gives a salt, the structure may show the parent alone. Read-outs that look alike come from different tables or passages of the source. Numbered stars: 1 amine (or outer) side, 2 acyl side, 3 side chain; on linkers, the order of the positions; unused ones are H or OH. Square brackets hold non-standard residues; d marks the D form. Side chains are listed from the residue outwards. Peptide text beside a SMILES is read from it. * marks the point of attachment. Ethylenediamine = C(CN[*:2])N[*:1]; Hyp = O=C(O)[C@@H]1C[C@@H](O)CN1; Phg = N[C@H](C(=O)O)c1ccccc1; CO = O=C([*:1])[*:2]; Bn = c1ccc(C*)cc1

The term Ki denotes a dissociation constant, usually derived from enzyme kinetics or from competition with a known ligand. A higher Ki goes with lower affinity.

Experiment [1] has as its target T1, fibroblast activation protein (FAP; rhFAP, SLIN-tagged hFAP) (Homo sapiens, UniProt Q12884).
T1 sequence (Q12884 35-760): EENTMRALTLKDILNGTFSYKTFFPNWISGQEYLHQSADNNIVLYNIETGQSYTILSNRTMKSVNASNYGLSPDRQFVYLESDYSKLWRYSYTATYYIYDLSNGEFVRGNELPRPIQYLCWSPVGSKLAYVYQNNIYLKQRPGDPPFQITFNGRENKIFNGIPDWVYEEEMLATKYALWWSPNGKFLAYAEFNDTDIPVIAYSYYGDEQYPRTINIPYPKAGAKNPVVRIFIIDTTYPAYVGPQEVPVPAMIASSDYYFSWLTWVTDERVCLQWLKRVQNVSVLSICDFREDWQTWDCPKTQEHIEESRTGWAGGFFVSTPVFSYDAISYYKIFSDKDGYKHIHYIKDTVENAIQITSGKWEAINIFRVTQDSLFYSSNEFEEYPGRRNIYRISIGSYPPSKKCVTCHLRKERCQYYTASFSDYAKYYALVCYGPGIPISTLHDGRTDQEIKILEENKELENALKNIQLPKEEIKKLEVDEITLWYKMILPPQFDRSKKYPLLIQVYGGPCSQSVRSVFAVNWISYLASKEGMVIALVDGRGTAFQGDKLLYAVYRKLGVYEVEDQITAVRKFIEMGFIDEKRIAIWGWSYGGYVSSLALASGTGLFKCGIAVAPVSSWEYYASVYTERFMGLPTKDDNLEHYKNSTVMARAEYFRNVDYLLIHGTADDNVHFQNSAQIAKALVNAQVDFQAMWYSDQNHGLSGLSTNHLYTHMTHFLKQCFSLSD
The note with it: 2 µM; inhibitor.

Experiment [2] has as its target T1, fibroblast activation protein (FAP; rhFAP, SLIN-tagged hFAP). The experiment can be described thus: biochemical.
The target is the same in experiment [3]. The experiment can be described thus: biochemical. The source holds these as a separate data set.

Take `CCC1=C(C)CN(C(=O)NCCc2ccc(S(=O)(=O)NC(=O)N[C@H]3CC[C@H](C)CC3)cc2)C1=O` [Glimepiride]: the “Relative inhibition (%), activity assay” value in experiment [1] turned out to be 16%. For the same compound, the inhibition constant Ki in experiment [2] was found to be 8.8 µM. On the same counts, the results for `CCOc1nc2cccc(C(=O)OCc3oc(=O)oc3C)c2n1Cc1ccc(-c2ccccc2-c2noc(=O)[nH]2)cc1` [Azilsartan medoxomil] are 11% and 3.9 µM. Turning to `CC(=O)[C@]1(O)Cc2c(O)c3c(c(O)c2[C@@H](O[C@H]2C[C@H](N)[C@H](O)[C@H](C)O2)C1)C(=O)c1ccccc1C3=O` [Idarubicin (hydrochloride)], the “Relative inhibition (%), activity assay” value in experiment [1] stood at 19%. Also, in experiment [2], the affinity corresponds to a Ki of 3.6 µM. For `CCN(CC)CCOc1ccc2c(c1)C(=O)c1cc(OCCN(CC)CC)ccc1-2` [Tilorone (dihydrochloride)], in experiment [1], the “Relative inhibition (%), activity assay” value is reported as 30%. Further, the affinity in experiment [2], expressed as Ki, was 2.9 µM. In the case of `COc1ccc(-c2cc(=O)c3c(O)c(OC)c(O)cc3o2)cc1OC` [Eupatilin], the “Relative inhibition (%), activity assay” value in experiment [1] is on record as 16%. The compound further showed an inhibition constant Ki in experiment [2] of 2 µM. As to `CCN(c1cc(-c2ccc(CN3CCOCC3)cc2)cc(C(=O)NCc2c(C)cc(C)[nH]c2=O)c1C)C1CCOCC1` [Tazemetostat (hydrobromide)], the “Relative inhibition (%), activity assay” value in experiment [1] is reported as 22%. The same compound came in with an inhibition constant Ki in experiment [2] of 8.7 µM.

For `CC/C=C\C/C=C\C/C=C\C/C=C\C/C=C\C/C=C\CCC(=O)O` [Docosahexaenoic acid], the “Relative inhibition (%), activity assay” value in experiment [1] is given as 10%. The compound also had an inhibitory constant (Ki) in experiment [2] of 5.5 µM. As to `CCN1CCN(Cc2ccc(Nc3ncc(F)c(-c4cc(F)c5nc(C)n(C(C)C)c5c4)n3)nc2)CC1` [Abemaciclib (methanesulfonate)], the “Relative inhibition (%), activity assay” value in experiment [1] is given as 5%. Further, in experiment [2], the Ki came to 0.8 µM. On the same counts, the results for `CC(=O)OCC1=C(C(=O)O)N2C(=O)[C@@H](NC(=O)CSc3ccncc3)[C@H]2SC1` [Cephapirin (sodium)] are 18% and 7.6 µM.

Regarding `COc1cccc2c1C(=O)c1c(O)c3c(c(O)c1C2=O)C[C@@](O)(C(=O)CO)C[C@@H]3O[C@H]1C[C@H](N)[C@H](O[C@@H]2CCCCO2)[C@H](C)O1` [Pirarubicin (Hydrochloride)], in experiment [1], the “Relative inhibition (%), activity assay” value is 19%. This compound also came in with a Ki in experiment [2] of 0.6 µM.

For `CC(=C(CCOC(=O)C(C)C)SSC(CCOC(=O)C(C)C)=C(C)N(C=O)Cc1cnc(C)nc1N)N(C=O)Cc1cnc(C)nc1N` (stereo in doubt) [Sulbutiamine], in experiment [1], the “Relative inhibition (%), activity assay” value turned out to be 15%. Besides, the affinity in experiment [2], expressed as Ki, was 5.8 µM.

For the compound `CCOc1ccc(Nc2ccc(/C(=C3/C=CC(=[N+](CC)Cc4cccc(S(=O)(=O)[O-])c4)C=C3C)c3ccc(N(CC)Cc4cccc(S(=O)(=O)O)c4)cc3C)cc2)cc1` [Brilliant blue G-250], the “Relative inhibition (%), activity assay” value in experiment [1] is 28%. The compound further showed an inhibition constant Ki in experiment [2] of 0.9 µM. As for `CCOC(=O)n1ccn(C)c1=S` [Carbimazole], the “Relative inhibition (%), activity assay” value in experiment [1] is given as 26%. In addition, the inhibition constant (Ki) in experiment [2] was found to be 7.9 µM. For the compound `CC1(C)C(/C=C/C=C/C=C/C=C2\N(CCCCS(=O)(=O)O)c3ccc4ccccc4c3C2(C)C)=[N+](CCCCS(=O)(=O)[O-])c2ccc3ccccc3c21` [Indocyanine green], the “Relative inhibition (%), activity assay” value in experiment [1] came out at 20%. For the same compound, in experiment [2], the inhibitory constant (Ki) was 4.1 µM. In the same order, the values of `COc1cccc2c1C(=O)c1c(O)c3c(c(O)c1C2=O)C[C@@](O)(C(C)=O)C[C@@H]3O[C@H]1C[C@H](N)[C@H](O)[C@H](C)O1` [Daunorubicin (hydrochloride)] are 23% and 6.4 µM. On the same counts, the results for `CCc1c(Cl)c(O)c(Cl)c(O)c1C(=O)O[C@H]1[C@H](O)[C@H](OC)[C@H](OC/C2=C\C=C\C[C@H](O)/C(C)=C/[C@H](CC)[C@@H](O[C@@H]3OC(C)(C)[C@@H](OC(=O)C(C)C)[C@H](O)[C@@H]3O)/C(C)=C/C(C)=C/C[C@@H]([C@@H](C)O)OC2=O)O[C@@H]1C` [Fidaxomicin] are 10% and 6.9 µM. In turn, `COc1cc(C(=O)NS(=O)(=O)c2ccccc2C)ccc1Cc1cn(C)c2ccc(NC(=O)OC3CCCC3)cc12` [Zafirlukast] registered a Ki in experiment [3] of 13.4 µM. In experiment [3], `Cc1oc(=O)oc1COC(=O)C1=C([C@H]2CCCO2)S[C@@H]2[C@@H]([C@@H](C)O)C(=O)N12` [Faropenem daloxate] came in with a Ki of 13.1 µM. Consider `CC(=O)O[C@H]1C[C@@H]2CC[C@@H]3[C@H](CC[C@@]4(C)[C@H]3C[C@H]([N+]3(C)CCCCC3)[C@@H]4OC(C)=O)[C@@]2(C)C[C@@H]1N1CCCCC1` [Vecuronium (bromide)], for which, in experiment [3], the affinity corresponds to a Ki of 25.8 µM. Compound `CO/N=C(\C(=O)N[C@@H]1C(=O)N2C(C(=O)O)=C(CSc3nnnn3C)CS[C@H]12)c1csc(N)n1` [Cefmenoxime (hydrochloride)] showed a Ki in experiment [3] of 25.1 µM.

The compound `CNCc1ccc(-c2[nH]c3cc(F)cc4c3c2CCNC4=O)cc1` [Rucaparib] yielded an inhibition constant Ki in experiment [3] of 44.4 µM.

Compound `COc1ccc(C(=O)N2CCCC2=O)cc1` [Aniracetam] returned a Ki in experiment [3] of 40.4 µM. Same read-out and setting: next, `NC(=O)c1cccc2cn(-c3ccc([C@@H]4CCCNC4)cc3)nc12` [Niraparib (tosylate)]: 16.3 µM; `NC(=NCc1ccccc1)NC(=O)c1nc(Cl)c(N)nc1N` [Benzamil (hydrochloride)]: 35.3 µM. The same measure, in the same setting: next, `CC(=O)OCC1=C(C(=O)O)N2C(=O)[C@@H](NC(=O)CSC(=NC(C)C)NC(C)C)[C@H]2SC1` [Cefathiamidine]: 23.6 µM; `CO[C@H]1/C=C/O[C@@]2(C)Oc3c(C)c(O)c4c(O)c(c(/C=N/N5CCN(C6CCCC6)CC5)c(O)c4c3C2=O)NC(=O)/C(C)=C\C=C\[C@H](C)[C@H](O)[C@@H](C)[C@@H](O)[C@@H](C)[C@H](OC(C)=O)[C@@H]1C` [Rifapentine]: 11.9 µM. With `CCCC[C@H](NC(C)=O)C(=O)N[C@H]1CC(=O)NCCCC[C@@H](C(=O)O)NC(=O)[C@H](Cc2c[nH]c3ccccc23)NC(=O)[C@H](CCCN=C(N)N)NC(=O)[C@@H](Cc2ccccc2)NC(=O)[C@H](Cc2cnc[nH]2)NC1=O` [Bremelanotide (Acetate)], in experiment [3], the Ki was 25 µM. On the same count and under the same terms, to `CC[N+](C)(C)c1cccc(O)c1` [Edrophonium (chloride)] belongs 35.3 µM; to `NCCCC[C@@H]1NC(=O)[C@@H](Cc2c[nH]c3ccccc23)NC(=O)[C@H](c2ccccc2)NC(=O)[C@@H]2C[C@@H](OC(=O)NCCN)CN2C(=O)[C@H](Cc2ccccc2)NC(=O)[C@H](Cc2ccc(OCc3ccccc3)cc2)NC1=O` [Pasireotide (acetate)] (cyclo([Hyp]([CO-Ethylenediamine])[Phg][dW]KY(Bn)F)), 19.9 µM; to `C=CC[N+]1([C@H]2C[C@H]3[C@@H]4CC[C@H]5C[C@H](OC(C)=O)[C@@H](N6CCCCC6)C[C@]5(C)[C@H]4CC[C@]3(C)[C@H]2OC(=O)CC)CCCCC1` [Rapacuronium bromide], 14.1 µM. The same measure, in the same setting: next, `CC(C)(C)OC(=O)N[C@H]1CCCCC/C=C\[C@@H]2C[C@@]2(C(=O)NS(=O)(=O)C2CC2)NC(=O)[C@@H]2C[C@@H](OC(=O)N3Cc4cccc(F)c4C3)CN2C1=O` [Danoprevir]: 19.3 µM.

In the case of `CO/N=C(\C(=O)N[C@@H]1C(=O)N2C(C(=O)O)=C(CSC(=O)c3ccco3)CS[C@H]12)c1csc(N)n1` [Ceftiofur (sodium)], the inhibitory constant (Ki) in experiment [3] came out at 23 µM. Compound `Nc1c2ccccc2nc2ccccc12` [9-Aminoacridine] came in with a Ki in experiment [3] of 12.4 µM. Still for that read-out and setting: to `Cc1c(-c2ccccc2)oc2c(C(=O)OCCN3CCCCC3)cccc2c1=O` [Flavoxate (hydrochloride)] belongs 33.6 µM; to `NC(=O)c1cc[n+](CC2=C(C(=O)O)N3C(=O)[C@@H](NC(=O)[C@@H](c4ccccc4)S(=O)(=O)[O-])[C@H]3SC2)cc1` [Cefsulodin (sodium)], 41.4 µM. Still for that read-out and setting: to `Cc1ccc(NC(=O)c2ccc(CN3CCN(C)CC3)cc2)cc1Nc1nc(-c2cccnc2)cs1` [Masitinib] belongs 43.9 µM.

`O=C1c2c(O)ccc(O)c2C(=O)c2c(NCCNCCO)ccc(NCCNCCO)c21` [Mitoxantrone (dihydrochloride)]: the Ki in experiment [3] came out at 11.6 µM. `Nc1ccc2cc3ccc(N)cc3nc2c1` [Proflavine (hemisulfate)] gave a Ki in experiment [3] of 26.7 µM. Same read-out and setting: next, `CC(C)C[C@H](NC(=O)CNC(=O)c1cc(Cl)ccc1Cl)B(O)O` [Ixazomib]: 33 µM; `CCCc1nc(C)c2c(=O)[nH]c(-c3cc(S(=O)(=O)N4CCN(CC)CC4)ccc3OCC)nn12` [Vardenafil (hydrochloride)]: 39.7 µM; `CC1(C)S[C@@H]2[C@H](NC(=O)C(C(=O)Oc3ccc4c(c3)CCC4)c3ccccc3)C(=O)N2[C@H]1C(=O)O` (stereo partly shown) [Carindacillin (sodium)]: 14.5 µM. `CCOc1ccc2nc3cc(N)ccc3c(N)c2c1` [Ethacridine (lactate monohydrate)]: the inhibition constant Ki in experiment [3] stood at 14.4 µM.
